Assays:
[1] = tested on: three strains of BSBL Escherichia coli and three strains of BSBL Klebsiella pneumoniae; experiment: Microplate microdilution, statements over all six strains tested; format: cell-based
Protocol: The six strains tested in this study are purified clinical isolates identified in the bacteriology laboratory of the Hassan II university teaching hospital center (CHU, Fes, Morocco). Three of the six bacterial strains tested are strains of BSBL Escherichia coli (P956, P933 and P7847) and the other three bacterial strains tested are strains of BSBL Klebsiella pneumoniae (H1878, H2001 and H1893).
For each test performed, precultures of the bacterial strains (frozen beforehand at −20° C.) for 24 h at 37° C. were prepared. From these precultures, bacterial inocula containing 2×10^7 CFU (colony-forming units)/ml were prepared, adjusting the optical density to 540 nm.
Amoxicillin (AMX) and cineole were supplied by Sigma Aldrich (France). A stock solution of AMX (400 μg/ml) was prepared after dissolving 40 mg of antibiotic in 100 ml of sterile distilled water. From this stock solution, serial dilutions were performed. The cineole concentrations used were prepared by emulsifying pure cineole in 0.2% (v/v) of agar-agar according to the method described by Remmal A et al. (J. Essent. Oil. Res [Book], 1993, 5: pages 1179-1184).
The partial inhibitory concentrations (PIC) are the concentrations of antibacterial agents which inhibit the growth of a given percentage (90%, 75%, 50%, 40% . . . ) of the bacterial population studied. The PICs of AMX and cineole with respect to the six bacterial strains used were determined via a microplate microdilution technique based on the monitoring of the bacterial growth by measuring the optical density (Casey J. T. et al., J. Microbiol. Meth [Book], 2004, 58: pages 327-334; Patton T et al., J. Microbiol. Meth [Book], 2006, 64: pages 84-95).
96-well U-shaped sterile microplates with a capacity of 200 μl were used. […]
For AMX and cineole, two rows were prepared containing 100 μl of MH liquid medium, 50 μl of the bacteria inoculum at 2×10^7 CFU/ml and 50 μl of decreasing concentrations of antimicrobial agents. […] The optical densities (OD) were determined at 540 nm using a microplate spectrophotometer (Versamax, Molecular Devices, USA). The OD was measured at time t=0 and after 22 hours of incubation at 30° C. The percentage of inhibition of the antimicrobial agents with respect to each of the six strains was calculated according to Casey J. T. et al. (J. Microbiol. Meth. [Book], 2004, 58: pages 327-334) according to the following formula: […]
After having determined the PICs of AMX and cineole alone, the antibacterial power of the combination of AMX and cineole was evaluated. […]
The fractional inhibitory concentration index (FIC-index) expressing the degree of synergism of the AMX-cineole combination was calculated according to the following formula (Odds F. C. et al., J. Antimicrob. Chemoth. [Book], 2003, 52: page 1). […]

[2] = tested on: amoxicillin-sensitive bacterial strain of Escherichia coli (ATCC 8739); experiment: Enzymatic test in liquid medium (growth inhibition with or without β-lactamase and cineole); format: cell-based; details: for % inhibition of growth: AMX 6 μg/ml, cineole 0.002 μl/ml, β-lactamase 0.03 U/ml where present, 22 hours at 30° C.
Protocol: This study is based on an enzymatic test first placing AMX combined with cineole in contact with ß-lactamases. The antibacterial activity of this antibiotic was then checked on an AMX-sensitive strain of Escherichia coli.
An amoxicillin-sensitive bacterial strain of Escherichia coli (ATCC 8739) was supplied by the national hygiene institute (INH-Rabat).
For each test performed, precultures of this E. coli strain of 24 h at 37° C. were prepared from this bacterial strain (frozen beforehand at −20° C.). From these precultures, bacterial inocula of 3.3×10^6 CFU/ml were prepared, adjusting the optical density to 540 nm.
The ß-lactamase powder was supplied by Sigma Aldrich (France). It was dissolved according to the supplier's instructions, at 10 mg/ml in 0.1 M of Tris HCl at pH 7, containing 0.1% of gelatin. The ß-lactamase (0.03 U/ml) thus prepared was stored between 2 and 8° C.
The MIC of AMX at 100% with respect to the sensitive strain of Escherichia coli, determined via the microdilution method described previously, is of the order of 6 μg/ml.
Starting with a 24 h preculture of the sensitive strain of E. coli, bacterial inocula at 3.3×10^6 CFU/ml were prepared, adjusting the optical density to 540 nm.
Five control tubes and one test tube were prepared as described in table 6 (cf. below).
Tube no 1 corresponds to the sterility control of the medium. Tube no 2 corresponds to the positive control of viability of the bacterial strain. Tube no 3 corresponds to the control of sensitivity of the strain to AMX. Tube no 4 corresponds to the control of non-inhibition of bacterial growth with an infra-inhibitory concentration of cineole. Tube no 5 corresponds to the control of degradation of AMX in the presence of ß-lactamase. Tube no 6 corresponds to the test of the effect of cineole on amoxicillin inhibition by the β-lactamases.
The OD was measured at time t=0, and after 22 hours of incubation at 30° C. The percentage of inhibition was then calculated according to the formula described previously:
With ODT0=OD of the test tube at time t=0, ODT22=OD of the test tube after 22 h of incubation, ODC0=OD of the positive control tube at time t=0, ODC22=OD of the positive control tube after 22 h of incubation.

CC1(C)S[C@@H]2[C@H](NC(=O)[C@H](N)c3ccc(O)cc3)C(=O)N2[C@H]1C(=O)O [amoxicillin, Amoxicillin]
IC50 ([1]; span over all strains tested, read-out: 50% PIC of AMX): 1.1 to 1.7 µg/mL
MIC ([1]; three strains of E. coli and three strains of K. pneumoniae, read-out: minimum inhibitory concentrations (MIC, 100% inhibition) of AMX): ~50 µg/mL
% inhibition of growth [2]: 100% ± 0.0
MIC ([2]; ATCC8739, sensitive strain of Escherichia coli, microdilution, read-out: MIC of AMX at 100%): ~6 µg/mL

CC12CCC(CC1)C(C)(C)O2 [cineole, 1,8-cineole]
40% PIC of cineole ([1]; span over all strains tested): 6.2-7.1 μl/ml
MICs of cineole ([1]; three strains of E. coli and three strains of K. pneumoniae): ~100 μl/ml
% inhibition of growth [2]: no growth inhibition
% inhibition of growth ([2]; listed as Cineole): 0% ± 0.0

Source: US11872216B2, “Pharmaceutical formulation comprising cineole and amoxicillin” (priority 2016, dated 2024)
